Consider 22 molecules from ChEMBL document CHEMBL1909046, “DrugMatrix in vitro pharmacology data”.

What is called IC50 is the concentration at which inhibition is half-maximal. A word on the Ki: it is the dissociation constant of the complex between target and ligand, obtained from inhibition or displacement.

Test [1] addresses T1, Muscarinic acetylcholine receptor M2 (Homo sapiens, UniProt P08172).
T1 sequence (P08172 whole entry): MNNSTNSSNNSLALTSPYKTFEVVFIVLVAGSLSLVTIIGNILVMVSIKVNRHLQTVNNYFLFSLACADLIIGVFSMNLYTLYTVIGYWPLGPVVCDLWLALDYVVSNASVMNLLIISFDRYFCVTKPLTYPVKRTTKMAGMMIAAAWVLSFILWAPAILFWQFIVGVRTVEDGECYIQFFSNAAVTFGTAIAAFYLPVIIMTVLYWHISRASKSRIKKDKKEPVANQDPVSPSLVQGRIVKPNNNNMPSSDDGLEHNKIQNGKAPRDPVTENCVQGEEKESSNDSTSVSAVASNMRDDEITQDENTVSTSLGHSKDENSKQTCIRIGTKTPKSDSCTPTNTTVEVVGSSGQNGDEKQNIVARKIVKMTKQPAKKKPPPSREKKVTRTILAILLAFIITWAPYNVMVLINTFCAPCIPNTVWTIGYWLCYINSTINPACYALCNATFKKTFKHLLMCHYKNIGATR
Type of test: cell membranes, CHO-K1, Membrane. Conditions: cho-k1.

Test [2] concerns the target T2, Alpha-1A adrenergic receptor (Rattus norvegicus, UniProt P43140).
T2 sequence (P43140 whole entry): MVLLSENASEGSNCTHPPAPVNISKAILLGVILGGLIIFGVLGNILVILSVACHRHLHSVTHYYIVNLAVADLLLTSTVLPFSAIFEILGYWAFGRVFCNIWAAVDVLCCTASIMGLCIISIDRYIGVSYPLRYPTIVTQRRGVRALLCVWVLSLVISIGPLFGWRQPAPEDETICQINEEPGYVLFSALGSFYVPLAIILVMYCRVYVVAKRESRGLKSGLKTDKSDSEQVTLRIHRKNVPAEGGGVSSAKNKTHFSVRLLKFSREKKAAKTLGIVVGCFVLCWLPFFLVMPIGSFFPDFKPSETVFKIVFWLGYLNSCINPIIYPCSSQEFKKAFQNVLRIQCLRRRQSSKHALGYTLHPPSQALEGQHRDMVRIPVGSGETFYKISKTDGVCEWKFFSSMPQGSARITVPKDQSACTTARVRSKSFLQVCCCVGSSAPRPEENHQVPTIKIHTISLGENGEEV
Description: DRUGMATRIX: Alpha-1A adrenergic receptor radioligand binding (ligand: prazosin). Conditions: Not Active = under 50% inhibition at 10 µM. Type of test: cell membranes, Wistar, Submaxillary gland, Membrane.

The target of test [3] is Tyrosine-protein kinase Fyn (Homo sapiens, UniProt P06241). As to the kind of experiment: biochemical. The test is classed as cell-based, Insect cells.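 Note: enzymatic inhibition of Fyn kinase activity measured with Poly(Glu:Tyr) as the phosphorylation substrate; in other assays of this panel Not Active means under 50% inhibition at 10 µM.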
Sequence of Tyrosine-protein kinase Fyn (P06241 whole entry): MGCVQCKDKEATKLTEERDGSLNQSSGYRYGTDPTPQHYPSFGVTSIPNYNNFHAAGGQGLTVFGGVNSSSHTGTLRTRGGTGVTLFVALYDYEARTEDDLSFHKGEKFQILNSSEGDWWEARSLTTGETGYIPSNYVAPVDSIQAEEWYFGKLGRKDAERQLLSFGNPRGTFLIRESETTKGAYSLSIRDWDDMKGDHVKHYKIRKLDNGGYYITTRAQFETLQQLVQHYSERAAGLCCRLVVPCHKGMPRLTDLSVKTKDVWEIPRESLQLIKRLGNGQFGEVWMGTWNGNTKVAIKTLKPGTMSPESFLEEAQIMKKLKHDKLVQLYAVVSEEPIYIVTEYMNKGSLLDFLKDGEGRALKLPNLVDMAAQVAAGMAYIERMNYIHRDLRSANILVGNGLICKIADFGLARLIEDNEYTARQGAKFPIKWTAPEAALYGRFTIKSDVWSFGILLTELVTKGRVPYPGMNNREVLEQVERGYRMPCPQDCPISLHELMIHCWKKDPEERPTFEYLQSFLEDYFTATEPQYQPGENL
Test [4] addresses Tyrosine-protein kinase Lck (Homo sapiens, UniProt P06239). Description: DRUGMATRIX: Protein Tyrosine Kinase, LCK enzyme inhibition (substrate: Poly(Glu:Tyr)). The test is classed as cell-based, Insect cells. The settings on record: Not Active = under 50% inhibition at 10 µM.
Another test concerns the target T3, Neutrophil elastase (Homo sapiens, UniProt P08246).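 Note: inhibition of neutrophil elastase enzyme activity, measured with a p-nitroanilide-linked peptide substrate; in other assays of this panel Not Active means under 50% inhibition at 10 µM.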
T3 sequence (P08246 whole entry): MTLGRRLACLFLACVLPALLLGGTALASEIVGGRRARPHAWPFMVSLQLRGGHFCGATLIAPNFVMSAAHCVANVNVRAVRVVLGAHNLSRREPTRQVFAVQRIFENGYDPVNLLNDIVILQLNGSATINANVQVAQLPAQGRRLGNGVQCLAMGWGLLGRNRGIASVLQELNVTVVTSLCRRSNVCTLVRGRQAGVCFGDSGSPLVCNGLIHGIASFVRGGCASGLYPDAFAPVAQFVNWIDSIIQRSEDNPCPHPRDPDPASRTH
Type of test: tissue-based.

Test [5] concerns the target C-C chemokine receptor type 5 (Homo sapiens, UniProt P51681). Type of test: cell membranes, HEK293, Membrane. Conditions: hek293. Note: in other assays of this panel Not Active means under 50% inhibition at 10 µM.

Sequence of C-C chemokine receptor type 5 (P51681 whole entry): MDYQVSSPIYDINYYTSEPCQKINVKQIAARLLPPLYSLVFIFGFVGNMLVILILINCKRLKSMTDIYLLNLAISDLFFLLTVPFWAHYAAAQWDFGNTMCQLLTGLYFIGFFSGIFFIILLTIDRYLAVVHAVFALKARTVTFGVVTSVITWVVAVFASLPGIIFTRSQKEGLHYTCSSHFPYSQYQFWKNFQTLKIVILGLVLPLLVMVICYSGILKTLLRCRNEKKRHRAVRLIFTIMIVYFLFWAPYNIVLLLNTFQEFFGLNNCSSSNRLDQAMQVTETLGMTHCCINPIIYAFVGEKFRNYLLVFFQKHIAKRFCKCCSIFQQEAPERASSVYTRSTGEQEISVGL
Sequence of Tyrosine-protein kinase Lck (P06239 whole entry): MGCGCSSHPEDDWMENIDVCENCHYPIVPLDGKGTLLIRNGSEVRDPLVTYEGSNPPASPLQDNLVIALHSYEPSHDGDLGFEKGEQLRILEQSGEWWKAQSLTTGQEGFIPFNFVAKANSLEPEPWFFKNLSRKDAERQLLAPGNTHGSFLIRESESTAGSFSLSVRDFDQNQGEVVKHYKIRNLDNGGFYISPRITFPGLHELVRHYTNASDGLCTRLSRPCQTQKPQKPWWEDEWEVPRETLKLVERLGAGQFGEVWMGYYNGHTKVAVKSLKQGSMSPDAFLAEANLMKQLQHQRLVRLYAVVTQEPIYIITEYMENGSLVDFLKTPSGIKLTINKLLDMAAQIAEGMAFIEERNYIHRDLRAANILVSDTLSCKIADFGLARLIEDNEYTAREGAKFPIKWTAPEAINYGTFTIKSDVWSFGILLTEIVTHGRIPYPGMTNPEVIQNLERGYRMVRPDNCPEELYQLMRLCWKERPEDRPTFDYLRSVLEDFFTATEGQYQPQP

As for `CC[C@H](C)C(=O)O[C@H]1CCC=C2C=C[C@H](C)[C@H](CC[C@@H]3C[C@@H](O)CC(=O)O3)[C@H]21` [MEVASTATIN], the IC50 result (in test [1]; in test [2]; in test [3] (insect cells); in test [4] (insect cells); against Neutrophil elastase; in test [5]) was “Not Active” throughout.
Regarding `O=C(OC[C@H]1O[C@@H](OC(=O)c2cc(O)c(O)c(OC(=O)c3cc(O)c(O)c(O)c3)c2)[C@H](OC(=O)c2cc(O)c(O)c(OC(=O)c3cc(O)c(O)c(O)c3)c2)[C@@H](OC(=O)c2cc(O)c(O)c(OC(=O)c3cc(O)c(O)c(O)c3)c2)[C@@H]1OC(=O)c1cc(O)c(O)c(OC(=O)c2cc(O)c(O)c(O)c2)c1)c1cc(O)c(O)c(OC(=O)c2cc(O)c(O)c(O)c2)c1` [TANNIC ACID], the IC50 result was “Not Active” in test [1]; “Not Active” in test [2]; 22 nM in test [3] (read-out: IC50); 79 nM in test [4] (read-out: IC50); “Not Active” against Neutrophil elastase; “Not Active” in test [5].
Take LEAD(IV) ACETATE: the IC50 entry in test [1] is “Not Active”; in test [2] it was “Not Active”; in test [3] (insect cells, read-out: IC50), 3300 nM; in test [4] (insect cells), “Not Active”; at Neutrophil elastase, “Not Active”; in test [5], “Not Active”. In addition, the Ki entry (in test [1]; in test [2]; in test [4] (insect cells); at Neutrophil elastase; in test [5]) was “Not Active” each time.
Take `CC#C[C@]1(O)CC[C@H]2[C@@H]3CCC4=CC(=O)CCC4=C3[C@@H](c3ccc(N(C)C)cc3)C[C@@]21C` [MIFEPRISTONE]: the IC50 result is “Not Active” in test [1]; “Not Active” in test [2]; 21400 nM in test [3] (read-out: IC50); “Not Active” in test [4] (insect cells); “Not Active” against Neutrophil elastase; “Not Active” in test [5].
`Cc1[nH]c(=O)c(C#N)cc1-c1ccncc1` [MILRINONE]: the IC50 entry (in test [1]; in test [2]; in test [3] (insect cells); in test [4] (insect cells); against Neutrophil elastase; in test [5]) was “Not Active” throughout.
In the case of `CCN(CC)N=O` [N-NITROSODIETHYLAMINE], the IC50 result (in test [1]; in test [2]; in test [3] (insect cells); in test [4] (insect cells); at Neutrophil elastase; in test [5]) was “Not Active” in each case.
For `Cc1ccc(S(=O)(=O)NC(=O)NN2CCCCCC2)cc1` [TOLAZAMIDE], the IC50 entry (in test [1]; in test [2]; in test [3] (insect cells); in test [4] (insect cells); against Neutrophil elastase; in test [5]) was “Not Active” in each case.
As for `CC(O)C(=O)O` (stereo not drawn) [LACTIC ACID], the IC50 result (in test [1]; in test [2]; in test [3] (insect cells); in test [4] (insect cells); against Neutrophil elastase; in test [5]) was “Not Active” in each case.
With `CS(=O)(=O)c1ccc(C2=C(c3ccccc3)C(=O)OC2)cc1` [ROFECOXIB], the IC50 result (in test [1]; in test [2]; in test [3] (insect cells); in test [4] (insect cells); on Neutrophil elastase; in test [5]) was “Not Active” in each case.
As for `CCOC(=O)C1=C(C)NC(C)=C(C(=O)OCC)C1c1ccccc1/C=C/C(=O)OC(C)(C)C` [LACIDIPINE], the IC50 result (in test [1]; in test [2]; in test [3] (insect cells); in test [4] (insect cells); against Neutrophil elastase; in test [5]) was “Not Active” throughout.
Turning to `CC(N)C12CC3CC(CC(C3)C1)C2` (stereo not drawn) [RIMANTADINE], the IC50 result (in test [1]; in test [2]; in test [3] (insect cells); in test [4] (insect cells); against Neutrophil elastase; in test [5]) was “Not Active” each time.
As to `CC(Cl)(Cl)Cl` [TRICHLOROETHANE], the IC50 result (in test [1]; in test [2]; in test [3] (insect cells); in test [4] (insect cells); on Neutrophil elastase; in test [5]) was “Not Active” throughout.
For `O=C(O)c1cc(/N=N/c2ccc(S(=O)(=O)Nc3ccccn3)cc2)ccc1O` [SULFASALAZINE], the IC50 result (in test [1]; in test [2]; in test [3] (insect cells); in test [4] (insect cells); on Neutrophil elastase; in test [5]) was “Not Active” each time.
Take `Cc1cccc(C)c1NC(=O)C(C)N` (stereo not drawn) [TOCAINIDE]: the IC50 result (in test [1]; in test [2]; in test [3] (insect cells); in test [4] (insect cells); on Neutrophil elastase; in test [5]) was “Not Active” each time.
As for `CO[C@@]12[C@H](COC(N)=O)C3=C(C(=O)C(C)=C(N)C3=O)N1C[C@@H]1N[C@@H]12` [MITOMYCIN], the IC50 entry (in test [1]; in test [2]; in test [3] (insect cells); in test [4] (insect cells); at Neutrophil elastase; in test [5]) was “Not Active” throughout.
For the molecule `Nc1nc(N)c2nc(-c3ccccc3)c(N)nc2n1`, the half-maximal inhibitory concentration (IC50) entry (in test [1]; in test [2]; in test [3] (insect cells); in test [4] (insect cells); against Neutrophil elastase; in test [5]) was “Not Active” each time.
Consider `CC1=C(/C=C/C(C)=C/C=C/C(C)=C/C(=O)O)C(C)(C)CCC1` [TRETINOIN], for which the IC50 result (in test [1]; in test [2]; in test [3] (insect cells); in test [4] (insect cells); on Neutrophil elastase; in test [5]) was “Not Active” throughout.
As for `CC[C@@]1(O)C(=O)OCc2c1cc1n(c2=O)Cc2cc3c(CN(C)C)c(O)ccc3nc2-1` [TOPOTECAN], the IC50 result (in test [1]; in test [2]; in test [3] (insect cells); in test [4] (insect cells); at Neutrophil elastase; in test [5]) was “Not Active” throughout.
Consider `Cc1ccc(Cl)c(Nc2ccccc2C(=O)O)c1Cl` [MECLOFENAMIC ACID], for which the half-inhibitory concentration (IC50) result (in test [1]; in test [2]; in test [3] (insect cells); in test [4] (insect cells); against Neutrophil elastase; in test [5]) was “Not Active” throughout.
`CCOc1cc(N)c(Cl)cc1C(=O)NCC1CN(Cc2ccc(F)cc2)CCO1` (stereo not drawn) [MOSAPRIDE]: the half-inhibitory concentration (IC50) entry (in test [1]; in test [2]; in test [3] (insect cells); in test [4] (insect cells); against Neutrophil elastase; in test [5]) was “Not Active” in each case.
With `CN1C[C@H](CNC(=O)OCc2ccccc2)C[C@@H]2c3cccc4c3c(cn4C)C[C@H]21` [METERGOLINE], the 50% inhibitory concentration (IC50) entry in test [1] is “Not Active”; in test [2] (read-out: IC50), 95 nM; in test [3] (insect cells), “Not Active”; in test [4] (insect cells) it was “Not Active”; against Neutrophil elastase, “Not Active”; in test [5] it was “Not Active”. Besides, the inhibition constant (Ki) in test [2] (read-out: Ki) amounted to 38 nM.
Regarding `C1CCN2C[C@@H]3C[C@@H](CN4CCCC[C@@H]34)[C@H]2C1` [SPARTEINE], the IC50 entry (in test [1]; in test [2]; in test [3] (insect cells); in test [4] (insect cells); against Neutrophil elastase; in test [5]) was “Not Active” in each case.
